Data reported in patent publication US20090110671A1, “AGENT FOR ENHANCHING THE PRODUCTION OF COLLAGEN AND IT'S USE” (priority 2005, published 2009).

Assays:
[1] = tested on: NHDF cells (normal human dermal fibroblast cell); experiment: Experiment 1: collagen production in NHDF cells (Sircol kit), α,α-trehalose with AA-2G; type: cell-based; conditions: relative to AA-2G = 100
Description: Using “fibrocell NHDF”, a normal human dermal fibroblast cell, commercialized by Kurashiki Spinning Co., Ltd., Okayama, Japan (abbreviated as “NHDF cells”, hereinafter), experiment for studying the influence of α,α-trehalose on the collagen production by L-ascorbic acids was conducted based on the method described in Bioscience, Biotechnology, and Biochemistry, Vol. 68, No. 4, pp. 767-773, 2004. The method is outlined below: Test solutions were prepared by dissolving L-ascorbic acid 2-glucoside, a reagent grade specimen commercialized by Hayashibara Biochemical Laboratories Inc., Okayama, Japan (may be abbreviated as “AA-2G”, hereinafter), and α,α-trehalose, a reagent grade specimen commercialized by Hayashibara Biochemical Laboratories Inc., Okayama, Japan, in Dulbecco […] essential medium containing 10% (v/v) fetal calf serum and an antibiotic (abbreviated as “D-MEM”, hereinafter) to give a final concentration of 50 μM/ml of AA-2G and a final concentration of 7.5, 15 or 30 mg/ml of α,α-trehalose. NHDF cells, which had been successively cultured in D-MEM medium, were collected, re-suspended in a fresh preparation of D-MEM medium, inoculated to 96-well microplates at a cell concentration of 2.5×10^4 cells/200 μl/well, and cultured for 24 hours. Thereafter, the supernatants of the cultures were removed by sucking, and further cultured for five days after addition of any of the test solutions in a volume of 200 μl/well. As controls, the cells, which had been cultured for 24 hours, were further cultured for five days after addition of 200 μl/well of D-MEM medium, D-MEM medium supplemented with α,α-trehalose at a concentration of 30 mg/ml, or D-MEM medium supplemented with AA-2G at a concentration of 50 μM/ml. After completion of culturing, the supernatants of the cultures were removed by sucking, admixed with 50 μl/well of 1 M acetic acid solution containing 1 mg/ml of pepsin, and shaken for four hours to solubilize collagen adhered to the cell surfaces, followed by quantifying the content of collagen accumulated in the cells using “Sircol Collagen Quantification Kit”, commercialized by Biocolor Ltd. These control and test solutions were respectively experimented with three wells, followed by calculating a mean value for collagen-production levels in the wells. All the cultures of the NHDF cells were conducted in a 5% (v/v) CO2 incubator. The results are in Table 1 where the values are expressed with relative values in terms of the collagen-production level of NHDF cells, which had been cultured in D-MEM medium containing AA-2G, being regarded as 100.

NHDF cells = experiment: Experiment 3: collagen production in NHDF cells, α,α-trehalose and saccharide derivatives with or without AA-2G; type: cell-based, human; conditions: relative to AA-2G = 100
Description: Based on the confirmation that α,α-trehalose has an action of enhancing the collagen production by L-ascorbic acid, it was experimented as follows to confirm whether saccharide derivatives of α,α-trehalose have such a similar action and effect. Test solutions were prepared by dissolving in D-MEM medium any one of AA-2G, hydrous crystalline α,α-trehalose, a reagent grade specimen with a purity of at least 98%, commercialized by Hayashibara Biochemical Laboratories Inc., Okayama, Japan; “HALLODEX”, a product name of a syrup of saccharide derivatives of α,α-trehalose, having a solid content of about 75% and containing, on a dry solid basis, about 53% of α-maltosyl α,α-trehalose and about 5% of other saccharide derivatives of α,α-trehalose in total, to give final concentrations of 50 μM of AA-2G and 15.0 mg/ml of saccharides. As a control, test solutions were prepared by dissolving in D-MEM medium either of the above hydrous crystalline α,α-trehalose, α-maltosyl α,α-trehalose, or syrup of saccharide derivatives of α,α-trehalose to give a final concentration of 15.0 mg/ml. The medium admixed with the syrup containing saccharide derivatives of α,α-trehalose was adjusted to give a concentration of 15.0 mg/ml of saccharide derivatives of α,α-trehalose. The culture of NHDF cells and the quantification of collagen-production level thereof were carried out similarly as in Experiment 1. The results are in Table 3, where the values are expressed with relative values in terms of the collagen production level of NHDF cells, being regarded as 100, when cultured in D-MEM medium containing AA-2G.

OC[C@H]1O[C@H](O[C@H]2O[C@H](CO)[C@@H](O)[C@H](O)[C@H]2O)[C@H](O)[C@@H](O)[C@@H]1O [α,α-trehalose]
Collagen-production level ([1]; α,α-trehalose 7.5 mg/ml + 50 μM AA-2G): 150
Collagen-production level ([1]; α,α-trehalose 15.0 mg/ml + 50 μM AA-2G): 217
Collagen-production level ([1]; α,α-trehalose 30.0 mg/ml + 50 μM AA-2G): 264
Collagen-production level ([1]; α,α-trehalose 30.0 mg/ml in D-MEM, no AA-2G): 41
Collagen-production level (NHDF cells; saccharide 15.0 mg/ml + 50 μM AA-2G): 227
Collagen-production level (NHDF cells; saccharide 15.0 mg/ml, AA-2G not added): 40
